Measured values from US11046699B2, “Pyrazolo-pyrimidin-amino-cycloalkyl compounds and their therapeutic uses” (RAPT THERAPEUTICS, INC., priority 2018, dated 2021).
Where a name gives a salt, the structure may show the parent alone. Read-outs that look alike come from different tables or passages of the source.

Target: GCN2 (Homo sapiens, UniProt Q9P2K8)
Assay: GCN2 enzymatic endpoint assay: phosphorylation of GFP-eIF2α measured by TR-FRET (Lanthascreen)
Assay type: biochemical
Outline: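 2 μM ATP, 80 nM GFP-eIF2α, RT, 90 min; EDTA stop. Tb-anti-phospho antibody TR-FRET read, 520/495 nm ratio.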

[1] = tested as described in Example 77, compound and/or hydrochloride, dihydrochloride or trifluoroacetic acid salt, read-out: IC 50 Activity
[2] = GCN2 biochemical IC50, 4 nM GCN2, 2 μM ATP, 80 nM GFP-eIF2α, 90 min RT, read-out: GCN2 activity

Sequence of GCN2 (Q9P2K8 whole entry): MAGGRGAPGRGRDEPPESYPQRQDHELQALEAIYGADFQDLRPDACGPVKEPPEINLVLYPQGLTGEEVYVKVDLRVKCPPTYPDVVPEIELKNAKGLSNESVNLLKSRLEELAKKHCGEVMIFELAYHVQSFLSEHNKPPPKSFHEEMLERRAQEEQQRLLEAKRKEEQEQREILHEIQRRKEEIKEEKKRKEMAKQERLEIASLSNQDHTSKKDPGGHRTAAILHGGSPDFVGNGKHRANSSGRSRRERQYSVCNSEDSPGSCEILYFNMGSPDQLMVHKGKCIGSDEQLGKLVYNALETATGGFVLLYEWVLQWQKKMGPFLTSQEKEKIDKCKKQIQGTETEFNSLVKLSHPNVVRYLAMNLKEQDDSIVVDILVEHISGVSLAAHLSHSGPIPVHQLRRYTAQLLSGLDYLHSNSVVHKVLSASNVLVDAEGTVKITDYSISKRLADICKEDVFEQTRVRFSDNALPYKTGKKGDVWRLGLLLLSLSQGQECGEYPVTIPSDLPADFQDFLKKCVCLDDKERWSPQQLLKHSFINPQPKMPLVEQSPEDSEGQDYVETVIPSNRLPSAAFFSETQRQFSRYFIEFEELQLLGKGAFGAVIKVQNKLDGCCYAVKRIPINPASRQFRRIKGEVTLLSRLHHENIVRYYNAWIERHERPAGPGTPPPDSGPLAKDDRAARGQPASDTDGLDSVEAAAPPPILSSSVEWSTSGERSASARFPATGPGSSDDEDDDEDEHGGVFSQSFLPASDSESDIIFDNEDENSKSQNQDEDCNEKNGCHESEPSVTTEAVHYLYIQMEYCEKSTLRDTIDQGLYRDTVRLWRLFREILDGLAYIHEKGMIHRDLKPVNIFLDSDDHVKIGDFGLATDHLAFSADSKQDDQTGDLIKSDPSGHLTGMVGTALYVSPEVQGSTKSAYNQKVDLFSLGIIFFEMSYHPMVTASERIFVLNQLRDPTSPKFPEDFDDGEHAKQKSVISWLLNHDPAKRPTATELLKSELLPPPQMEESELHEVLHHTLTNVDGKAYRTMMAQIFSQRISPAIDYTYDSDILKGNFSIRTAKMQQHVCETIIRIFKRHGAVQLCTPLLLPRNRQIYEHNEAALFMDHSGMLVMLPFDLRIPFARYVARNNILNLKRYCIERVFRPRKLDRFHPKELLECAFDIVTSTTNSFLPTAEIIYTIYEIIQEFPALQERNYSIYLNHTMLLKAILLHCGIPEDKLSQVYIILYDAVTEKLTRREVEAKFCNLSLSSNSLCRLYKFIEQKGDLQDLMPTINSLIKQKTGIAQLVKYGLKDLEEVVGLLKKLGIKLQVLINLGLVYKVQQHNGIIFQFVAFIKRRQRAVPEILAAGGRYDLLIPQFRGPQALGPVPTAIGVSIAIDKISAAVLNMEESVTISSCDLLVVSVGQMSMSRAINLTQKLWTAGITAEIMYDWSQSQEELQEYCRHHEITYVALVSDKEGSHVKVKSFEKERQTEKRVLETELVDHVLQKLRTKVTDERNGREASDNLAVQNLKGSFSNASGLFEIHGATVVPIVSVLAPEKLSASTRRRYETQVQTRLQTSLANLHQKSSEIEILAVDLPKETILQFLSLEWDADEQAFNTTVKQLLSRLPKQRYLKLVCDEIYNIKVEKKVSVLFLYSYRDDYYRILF

IC50 [1]	IC50 [2]	SMILES
< 25 nM	–	CNC(=O)C1(C)CC[C@@H](Nc2ncc3c(Br)nn(-c4cc(C#N)c5nccc(C)c5c4)c3n2)C1 (stereo partly drawn) [(3R)-3-[[3-bromo-1-(8-cyano-4-methyl-6-quinolyl)pyrazolo[3,4-d]pyrimidin-6-yl]amino]-N,1-dimethyl-cyclopentane-carboxamide]
25 to 200 nM	–	CNC(=O)[C@]1(C)CC[C@@H](Nc2ncc3c(Br)nn(-c4ccc5nccc(P(C)(C)=O)c5c4)c3n2)C1 [(1R,3R)-3-[[3-bromo-1-(4-dimethyl-phosphoryl-6-quinolyl)pyrazolo[3,4-d]pyrimidin-6-yl]amino]-N,1-dimethyl-cyclopentanecarboxamide]
25 to 200 nM	–	CNC(=O)[C@]1(C)CC[C@@H](Nc2ncc3c(Br)nn(-c4ccc(-c5ncco5)c(CC(=O)N(C)C)c4)c3n2)C1 [(1R,3R)-3-[[3-bromo-1-[3-[2-(dimethylamino)-2-oxo-ethyl]-4-oxazol-2-yl-phenyl]pyrazolo [3,4-d]pyrimidin-6-yl]amino]-N,1-dimethyl-cyclopentanecarboxamide]
< 25 nM	–	CNC(=O)[C@]1(C)CC[C@@H](Nc2ncc3c(Br)nn(-c4ccc(-c5nnc(C)o5)cc4)c3n2)C1 [(1R,3R)-3-[[3-bromo-1-[4-(5-methyl-1,3,4-oxadiazol-2-yl)phenyl]pyrazolo[3,4-d]pyrimidin-6-yl]amino]-N,1-dimethyl-cyclo-pentanecarboxamide]
–	25 to 200 nM	CNC(=O)[C@]1(C)CC[C@@H](Nc2ncc3c(Br)nn(-c4ccc(-c5ncco5)c(CC#N)c4)c3n2)C1 [Example 45, (1R,3R)-3-((3-bromo-1-(3-(cyanomethyl)-4-(oxazol-2-yl)phenyl)-1H-pyrazolo[3,4-d]pyrimidin-6-yl)amino)-N,1-dimethylcyclopentane-1-carboxamide; 2,2,2-trifluoroacetic acid]
25 to 200 nM	–	CNC(=O)[C@]1(C)CC[C@@H](Nc2ncc3c(Br)nn(-c4ccc(C#N)c(CCN)c4)c3n2)C1 [(1R,3R)-3-[[1-[3-(2-aminoethyl)-4-cyano-phenyl]-3-bromo-pyrazolo[3,4-d]pyrimidin-6-yl]amino]-N,1-dimethyl-cyclopentanecarboxamide]
25 to 200 nM	–	CNC(=O)[C@]1(C)CCC(Nc2ncc3c(Br)nn(-c4ccc5c(c4)CCC(=O)N5)c3n2)C1 (stereo partly drawn) [(1R)-3-[[3-bromo-1-(2-oxo-3,4-dihydro-1H-quinolin-6-yl)pyrazolo[3,4-d]pyrimidin-6-yl]amino]-N,1-dimethyl-cyclopentane-carboxamide]
25 to 200 nM	–	CNC(=O)[C@]1(C)CC[C@@H](Nc2ncc3c(Br)nn(-c4ccc(-c5cnn(C)c5C#N)cc4)c3n2)C1 [(1R,3R)-3-[[3-bromo-1-[4-(5-cyano-1-methyl-pyrazol-4-yl)phenyl]pyrazolo[3,4-d]pyrimidin-6-yl]amino]-N,1-dimethyl-cyclopentane-carboxamide]
25 to 200 nM	–	CNC(=O)[C@]1(C)CC[C@@H](Nc2ncc3c(Br)nn(-c4ccc5ncc(C(C)(C)O)cc5c4)c3n2)C1 [(1R,3R)-3-[[3-bromo-1-[3-(1-hydroxy-1-methyl-ethyl)-6-quinolyl]pyrazolo[3,4-d]pyrimidin-6-yl]amino]-N,1-dimethyl-cyclopentanecarboxamide]
–	< 25 nM	CNC(=O)[C@]1(C)CC[C@@H](Nc2ncc3c(Br)nn(-c4cc(Cl)cc(CCN)c4)c3n2)C1 [Example 41, (1R,3R)-3-((1-(3-(2-aminoethyl)-5-chlorophenyl)-3-bromo-1H-pyrazolo[3,4-d]pyrimidin-6-yl)amino)-N,1-dimethylcyclopentane-1-carboxamide hydrochloride]
< 25 nM	–	CNC(=O)[C@]1(C)CC[C@@H](Nc2ncc3c(Br)nn(-c4ccc5ncc(CCO)cc5c4)c3n2)C1 [(1R,3R)-3-[[3-bromo-1-[3-(2-hydroxyethyl)-6-quinolyl]pyrazolo[3,4-d]pyrimidin-6-yl]amino]-N,1-dimethyl-cyclopentane-carboxamide]
25 to 200 nM	–	CNC(=O)[C@]1(C)CC[C@@H](Nc2ncc3c(Br)nn(-c4ccc(-c5cncnc5)cc4)c3n2)C1 [(1R,3R)-3-[[3-bromo-1-(4-pyrimidin-5-ylphenyl)pyrazolo[3,4-d]pyrimidin-6-yl]amino]-N,1-dimethyl-cyclopentane-carboxamide]
25 to 200 nM	–	CNC(=O)[C@]1(C)CC[C@@H](Nc2ncc3c(Br)nn(-c4ccc(-c5nnc(COC)s5)cc4)c3n2)C1 [(1R,3R)-3-[[3-bromo-1-[4-[5-(methoxy-methyl)-1,3,4-thiadiazol-2-yl]phenyl]pyrazolo[3,4-d]pyrimidin-6-yl]amino]-N,1-dimethyl-cyclopentanecarboxamide]
25 to 200 nM	–	CNC(=O)[C@]1(C)CC[C@@H](Nc2ncc3c(Br)nn(-c4cc(CC#N)c5nccnc5c4)c3n2)C1 [(1R,3R)-3-[[3-bromo-1-[8-(cyanomethyl)quinoxalin-6-yl]pyrazolo[3,4-d]pyrimidin-6-yl]amino]-N,1-dimethyl-cyclopentane-carboxamide]

The remaining lines, values behind:

SMILES	IC50 [1]	IC50 [2]
COCCNC(=O)C12CCC(Nc3ncc4c(Br)nn(-c5ccc6ncccc6c5)c4n3)(CC1)C2 [4-((3-bromo-1-(quinolin-6-yl)-1H-pyrazolo [3,4-d]pyrimidin-6-yl)amino)-N-(2-methoxyethyl)bicyclo[2.2.1]heptane-1-carboxamide]	200 to 500 nM	–
N#Cc1cc(-n2nc(Br)c3cnc(N[C@@H]4CC[C@@H](C(=O)N5CCNC(=O)C5)C4)nc32)cc2cccnc12 [6-(3-bromo-6-(((1R,3R)-3-(3-oxopiperazine-1-carbonyl)cyclopentyl)amino)-1H-pyrazolo [3,4-d]pyrimidin-1-yl)quinoline-8-carbonitrile]	< 25 nM	–
Cc1nnc(-c2ccc(-n3nc(Br)c4cnc(NC5CC(P(C)(C)=O)C5)nc43)cc2CCS(C)(=O)=O)s1 (centres unmarked) [3-bromo-N-(3-dimethylphosphorylcyclo-butyl)-1-[3-(2-methylsulfonylethyl)-4-(5-methyl-1,3,4-thiadiazol-2-yl)phenyl] pyrazolo[3,4-d]pyrimidin-6-amine]	25 to 200 nM	–
Cc1nnc(-c2ccc(-n3nc(Br)c4cnc(N[C@@H]5CC[C@@H](P(C)(C)=O)C5)nc43)cc2)s1 [Example 57, ((1R,3R)-3-((3-bromo-1-(4-(5-methyl-1,3,4-thiadiazol-2-yl)phenyl)-1H-pyrazolo[3,4-d]pyrimidin-6-yl)amino)cyclopentyl)dimethylphosphine oxide]	–	25 to 200 nM
Cc1nnc(-c2ccc(-n3nc(Br)c4cnc(N[C@@H]5CC[C@@H](NC(=O)C(C)C)C5)nc43)cc2)s1 [N-[(1R,3R)-3-[[3-bromo-1-[4-(5-methyl-1,3,4-thiadiazol-2-yl)phenyl]pyrazolo [3,4-d]pyrimidin-6-yl]amino]cyclopentyl]-2-methyl-propanamide]	25 to 200 nM	–
Cc1nnc(-c2ccc(-n3nc(Br)c4cnc(N[C@@H]5CC[C@@](C)(O)C5)nc43)cc2CCC#N)s1 [Example 76, 3-(5-(3-bromo-6-(((1R,3R)-3-hydroxy-3-methylcyclopentyl)amino)-1H-pyrazolo[3,4-d]pyrimidin-1-yl)-2-(5-methyl-1,3,4-thiadiazol-2-yl)phenyl)propanenitrile]	–	25 to 200 nM
C[C@]1(C(=O)N2CNC(=O)C2)CC[C@@H](Nc2ncc3c(Br)nn(-c4cc(F)c5ncccc5c4)c3n2)C1 [1-[(1S,3R)-3-[[3-bromo-1-(8-fluoro-6-quinolyl)pyrazolo[3,4-d]pyrimidin-6-yl]amino]-1-methyl-cyclopentanecarbonyl] imidazolidin-4-one]	25 to 200 nM	–
CNS(=O)(=O)[C@@H]1CC[C@@H](Nc2ncc3c(Br)nn(-c4ccc(-c5nnc(C)s5)cc4)c3n2)C1 [Example 68, (1R,3R)-3-((3-bromo-1-(4-(5-methyl-1,3,4-thiadiazol-2-yl)phenyl)-1H-pyrazolo[3,4-d]pyrimidin-6-yl)amino)-N-methylcyclopentane-1-sulfonamide]	–	< 25 nM
CNC(=O)[C@]1(C)CC[C@@H](Nc2ncc3c(Br)nn(-c4cccc(NC(=O)c5cscn5)c4)c3n2)C1 [N-[3-[3-bromo-6-[[(1R,3R)-3-methyl-3-(methylcarbamoyl)cyclopentyl]amino]pyrazolo[3,4-d]pyrimidin-1-yl]phenyl] thiazole-4-carboxamide]	25 to 200 nM	–
O=C([C@@H]1CC[C@@H](Nc2ncc3c(Br)nn(-c4cc(F)c5ncccc5c4)c3n2)C1)N1CCNC(C(F)(F)F)C1 (stereo partly drawn) [[(1R,3R)-3-[[3-bromo-1-(8-fluoro-6-quinolyl)pyrazolo[3,4-d]pyrimidin-6-yl]amino]cyclo-pentyl]-[3-(trifluoromethyl)piperazin-1-yl] methanone]	25 to 200 nM	–
CP(C)(=O)[C@@H]1CC[C@@H](Nc2ncc3c(Br)nn(-c4cc(C5CCNC5)c5ncccc5c4)c3n2)C1 (stereo partly drawn) [3-bromo-N-[(1R,3R)-3-dimethylphosphoryl-cyclopentyl]-1-(8-pyrrolidin-3-yl-6-quinolyl) pyrazolo[3,4-d]pyrimidin-6-amine]	25 to 200 nM	–
O=C([C@@H]1CC[C@@H](Nc2ncc3c(Br)nn(-c4ccc5ncccc5c4)c3n2)C1)N1CCC2(CNC2)C1 [((1R,3R)-3-((3-bromo-1-(quinolin-6-yl)-1H-pyrazolo[3,4-d]pyrimidin-6-yl)amino)cyclo-pentyl)(2,6-diazaspiro[3.4]octan-6-yl) methanone]	< 25 nM	–
CN(C)C(=O)[C@@H]1CC[C@@H](Nc2ncc3c(Br)nn(-c4cc(F)c5ncccc5c4)c3n2)C1 [(1R,3R)-3-((3-bromo-1-(8-fluoroquinolin-6-yl)-1H-pyrazolo[3,4-d]pyrimidin-6-yl)amino)-N,N-dimethylcyclopentane-1-carboxamide]	25 to 200 nM	–
CNC(=O)[C@]1(C)CC[C@@H](Nc2ncc3c(Br)nn(-c4cc(CN5C(=O)CNC5=O)c5ncccc5c4)c3n2)C1 [(1R,3R)-3-[[3-bromo-1-[8-[(2,5-dioxo-imidazolidin-1-yl)methyl]-6-quinolyl]pyrazolo[3,4-d]pyrimidin-6-yl]amino]-N,1-dimethyl-cyclopentanecarboxamide]	25 to 200 nM	–
C[C@@H]1CN(C(=O)[C@@H]2CC[C@@H](Nc3ncc4c(Br)nn(-c5ccc6ncccc6c5)c4n3)C2)C[C@H](C)N1 [((1R,3R)-3-((3-bromo-1-(quinolin-6-yl)-1H-pyrazolo[3,4-d]pyrimidin-6-yl)amino)cyclo-pentyl)((3S,5R)-3,5-dimethylpiperazin-1-yl) methanone]	25 to 200 nM	–
